# In PubChem BioAssay (NCI):
#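 Cells were grown in 96-well plates and exposed to each compound for 48 hours at five concentrations; endpoints were interpolated linearly between bracketing concentrations, or set to the highest concentration if not reached. At the GI50, growth is halved. TGI denotes the concentration required for complete inhibition of growth.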
# Columns and labels:
# Assay in all cases: growth of human tumour cells (NCI), 48 h
# SK-MEL-5 melanoma = tested on: SK-MEL-5 melanoma
# SW-620 colon = tested on: SW-620 colon
# NCI-H460 lung = tested on: NCI-H460 lung
# MDA-MB-435 = tested on: MDA-MB-435
# SR leukemia = tested on: SR leukemia
# RXF 393 renal = tested on: RXF 393 renal
# SN12C renal = tested on: SN12C renal
# SF-295 CNS = tested on: SF-295 CNS
# SF-539 CNS = tested on: SF-539 CNS
# MALME-3M melanoma = tested on: MALME-3M melanoma
# SK-OV-3 ovarian = tested on: SK-OV-3 ovarian
# MOLT-4 leukemia = tested on: MOLT-4 leukemia
# SK-MEL-2 melanoma = tested on: SK-MEL-2 melanoma
# NCI-H226 lung = tested on: NCI-H226 lung
# OVCAR-3 ovarian = tested on: OVCAR-3 ovarian
# M14 melanoma = tested on: M14 melanoma
# 786-0 renal = tested on: 786-0 renal
# TK-10 renal = tested on: TK-10 renal
# HL-60(TB) leukemia = tested on: HL-60(TB) leukemia
# UACC-257 melanoma = tested on: UACC-257 melanoma
# CAKI-1 renal = tested on: CAKI-1 renal
# CCRF-CEM leukemia = tested on: CCRF-CEM leukemia
# OVCAR-8 ovarian = tested on: OVCAR-8 ovarian
# BT-549 breast = tested on: BT-549 breast
# COLO 205 colon = tested on: COLO 205 colon
# HT29 colon = tested on: HT29 colon
# HOP-92 NSCLC = tested on: HOP-92 NSCLC
# A549 NSCLC = tested on: A549 NSCLC
# HOP-62 NSCLC = tested on: HOP-62 NSCLC
# KM12 colon = tested on: KM12 colon
# A498 renal = tested on: A498 renal
# SNB-19 CNS = tested on: SNB-19 CNS
# MDA-MB-468 breast = tested on: MDA-MB-468 breast
# HCT-116 colon = tested on: HCT-116 colon
# NCI-H522 lung = tested on: NCI-H522 lung
# IGROV1 ovarian = tested on: IGROV1 ovarian
# HCC-2998 colon = tested on: HCC-2998 colon
# OVCAR-4 ovarian = tested on: OVCAR-4 ovarian
# LOX IMVI melanoma = tested on: LOX IMVI melanoma
# MDA-MB-231 breast = tested on: MDA-MB-231 breast
# HS 578T breast = tested on: HS 578T breast
# SF-268 CNS = tested on: SF-268 CNS
# SK-MEL-28 melanoma = tested on: SK-MEL-28 melanoma
# U251 CNS = tested on: U251 CNS
# NCI-H23 lung = tested on: NCI-H23 lung
# PC-3 prostate = tested on: PC-3 prostate
# ACHN renal = tested on: ACHN renal
# UO-31 renal = tested on: UO-31 renal
# K-562 leukemia = tested on: K-562 leukemia
# T-47D breast = tested on: T-47D breast
# EKVX NSCLC = tested on: EKVX NSCLC
# DU-145 prostate = tested on: DU-145 prostate
# HCT-15 colon = tested on: HCT-15 colon
# UACC-62 melanoma = tested on: UACC-62 melanoma
# SNB-75 CNS = tested on: SNB-75 CNS
# NCI/ADR-RES ovarian = tested on: NCI/ADR-RES ovarian
# RPMI-8226 leukemia = tested on: RPMI-8226 leukemia
# OVCAR-5 ovarian = tested on: OVCAR-5 ovarian
# MCF7 breast = tested on: MCF7 breast
compound,measurement,setting,value
COc1cc(Nc2nc(O)c(/C=C3\C=Nc4ccccc43)s2)cc(OC)c1OC,GI50,SK-MEL-5 melanoma,2.46 µM
same,TGI,SK-MEL-5 melanoma,14.1 µM
same,GI50,SW-620 colon,3.1 µM
same,TGI,SW-620 colon,21.8 µM
same,GI50,NCI-H460 lung,2.1 µM
same,TGI,NCI-H460 lung,14.3 µM
same,GI50,MDA-MB-435,0.28 µM
same,TGI,MDA-MB-435,0.94 µM
same,GI50,SR leukemia,0.394 µM
same,TGI,SR leukemia,29.9 µM
same,GI50,RXF 393 renal,1 µM
same,TGI,RXF 393 renal,5.8 µM
same,GI50,SN12C renal,3.85 µM
same,TGI,SN12C renal,15.1 µM
same,GI50,SF-295 CNS,2.27 µM
same,TGI,SF-295 CNS,13.4 µM
same,GI50,SF-539 CNS,2.49 µM
same,TGI,SF-539 CNS,9.95 µM
same,GI50,MALME-3M melanoma,2.01 µM
same,TGI,MALME-3M melanoma,15.2 µM
same,GI50,SK-OV-3 ovarian,2.56 µM
same,TGI,SK-OV-3 ovarian,10.3 µM
same,GI50,MOLT-4 leukemia,2.63 µM
same,TGI,MOLT-4 leukemia,26 µM
same,GI50,SK-MEL-2 melanoma,1.45 µM
same,TGI,SK-MEL-2 melanoma,12.2 µM
same,GI50,NCI-H226 lung,3.18 µM
same,TGI,NCI-H226 lung,17.4 µM
same,GI50,OVCAR-3 ovarian,0.517 µM
same,TGI,OVCAR-3 ovarian,5.32 µM
same,GI50,M14 melanoma,2.02 µM
same,TGI,M14 melanoma,15.9 µM
same,GI50,786-0 renal,2.72 µM
same,TGI,786-0 renal,11.9 µM
same,GI50,TK-10 renal,8.56 µM
same,TGI,TK-10 renal,22.8 µM
same,GI50,HL-60(TB) leukemia,0.854 µM
same,TGI,HL-60(TB) leukemia,11.1 µM
same,GI50,UACC-257 melanoma,5.18 µM
same,TGI,UACC-257 melanoma,21.1 µM
same,GI50,CAKI-1 renal,0.84 µM
same,TGI,CAKI-1 renal,10.3 µM
same,GI50,CCRF-CEM leukemia,2.09 µM
same,TGI,CCRF-CEM leukemia,> 100 µM
same,GI50,OVCAR-8 ovarian,10.6 µM
same,TGI,OVCAR-8 ovarian,27.2 µM
same,GI50,BT-549 breast,0.81 µM
same,TGI,BT-549 breast,10.7 µM
same,GI50,COLO 205 colon,3.14 µM
same,TGI,COLO 205 colon,16.4 µM
same,GI50,HT29 colon,0.923 µM
same,TGI,HT29 colon,10.1 µM
same,GI50,HOP-92 NSCLC,1.98 µM
same,TGI,HOP-92 NSCLC,6.38 µM
same,GI50,A549 NSCLC,2.84 µM
same,TGI,A549 NSCLC,16.5 µM
same,GI50,HOP-62 NSCLC,2.69 µM
same,TGI,HOP-62 NSCLC,15.7 µM
same,GI50,KM12 colon,0.977 µM
same,TGI,KM12 colon,16.8 µM
same,GI50,A498 renal,10.2 µM
same,TGI,A498 renal,24.6 µM
same,GI50,SNB-19 CNS,6.6 µM
same,TGI,SNB-19 CNS,21.2 µM
same,GI50,MDA-MB-468 breast,0.657 µM
same,TGI,MDA-MB-468 breast,6.23 µM
same,GI50,HCT-116 colon,1.1 µM
same,TGI,HCT-116 colon,10.2 µM
same,GI50,NCI-H522 lung,0.403 µM
same,TGI,NCI-H522 lung,5.56 µM
same,GI50,IGROV1 ovarian,4.91 µM
same,TGI,IGROV1 ovarian,21.6 µM
same,GI50,HCC-2998 colon,6.36 µM
same,TGI,HCC-2998 colon,20.7 µM
same,GI50,OVCAR-4 ovarian,2.88 µM
same,TGI,OVCAR-4 ovarian,10.6 µM
same,GI50,LOX IMVI melanoma,2.82 µM
same,TGI,LOX IMVI melanoma,13.9 µM
same,GI50,MDA-MB-231 breast,4.77 µM
same,TGI,MDA-MB-231 breast,18.8 µM
same,GI50,HS 578T breast,2.33 µM
same,TGI,HS 578T breast,11.9 µM
same,GI50,SF-268 CNS,3.56 µM
same,TGI,SF-268 CNS,20 µM
same,GI50,SK-MEL-28 melanoma,6.07 µM
same,TGI,SK-MEL-28 melanoma,21 µM
same,GI50,U251 CNS,3.27 µM
same,TGI,U251 CNS,15.7 µM
same,GI50,NCI-H23 lung,5.33 µM
same,TGI,NCI-H23 lung,21.1 µM
same,GI50,PC-3 prostate,2.59 µM
same,TGI,PC-3 prostate,22.6 µM
same,GI50,ACHN renal,3.2 µM
same,TGI,ACHN renal,12 µM
same,GI50,UO-31 renal,3.43 µM
same,TGI,UO-31 renal,13.7 µM
same,GI50,K-562 leukemia,0.526 µM
same,TGI,K-562 leukemia,31.1 µM
same,GI50,T-47D breast,3.58 µM
same,TGI,T-47D breast,19.7 µM
same,GI50,EKVX NSCLC,8.02 µM
same,TGI,EKVX NSCLC,22.2 µM
same,GI50,DU-145 prostate,4.63 µM
same,TGI,DU-145 prostate,17.2 µM
same,GI50,HCT-15 colon,1.79 µM
same,TGI,HCT-15 colon,12.4 µM
same,GI50,UACC-62 melanoma,4.75 µM
same,TGI,UACC-62 melanoma,19.7 µM
same,GI50,SNB-75 CNS,1.24 µM
same,TGI,SNB-75 CNS,3.63 µM
same,GI50,NCI/ADR-RES ovarian,6.24 µM
same,TGI,NCI/ADR-RES ovarian,24.2 µM
same,GI50,RPMI-8226 leukemia,5.73 µM
same,TGI,RPMI-8226 leukemia,> 100 µM
same,GI50,OVCAR-5 ovarian,4.58 µM
same,TGI,OVCAR-5 ovarian,17.7 µM
same,GI50,MCF7 breast,1.79 µM
same,TGI,MCF7 breast,11.9 µM
